Measured values as given in patent US20260060250A1, “HERBICIDAL PYRIDONE DERIVATIVES” (SYNGENTA CROP PROTECTION AG, priority 2022, published 2026).

What was measured:
Format in all cases: in vivo
Conditions in all cases: evaluated after 13 days
[1] = tested on: Amaranthus palmeri (AMAPA); experiment: Pre-emergence Test (Table B1); parameters: key: 5=81-100%; 4=61-80%; 3=41-60%; 2=21-40%; 1=0-20%; 0=inactive
[2] = tested on: Setaria faberi (SETFA); experiment: Pre-emergence Test (Table B1); parameters: key: 5=81-100%; 4=61-80%; 3=41-60%; 2=21-40%; 1=0-20%; 0=inactive
[3] = tested on: Echinochloa crus-galli (ECHCG); experiment: Pre-emergence Test (Table B1); parameters: key: 5=81-100%; 4=61-80%; 3=41-60%; 2=21-40%; 1=0-20%; 0=inactive
[4] = tested on: Amaranthus retroflexus (AMARE); experiment: Pre-emergence Test (Table B1)
[5] = tested on: Zea mays (ZEAMX); experiment: Pre-emergence Test (Table B1); parameters: key: 5=81-100%; 4=61-80%; 3=41-60%; 2=21-40%; 1=0-20%; 0=inactive
[6] = tested on: Ipomoea hederacea (IPOHE); experiment: Pre-emergence Test (Table B1); parameters: key: 5=81-100%; 4=61-80%; 3=41-60%; 2=21-40%; 1=0-20%; 0=inactive
[7] = tested on: Amaranthus palmeri (AMAPA); experiment: Post-emergence Test (Table B2)
Experimental: (§1) Seeds of a variety of test species are sown in standard soil in pots (Amaranthus palmeri (AMAPA), Setaria faberi (SETFA), Echinochloa crus-galli (ECHCG), (Amaranthus retroflexus (AMARE), Zea mays (ZEAMX), Ipomoea hederacea (IPOHE)). After 8 days cultivation under controlled conditions in a glasshouse (at 24° C./16° C., day/night; 14 hours light; 65% humidity), the plants are sprayed with an aqueous spray solution derived from the formulation of the technical active ingredient in acetone/water (50:50) solution containing 0.5% Tween 20 (polyoxyethelyene sorbitan monolaurate, CAS RN 9005-64-5). Compounds are applied at 1000 g/ha unless otherwise stated. The test plants are then grown in a glasshouse under controlled conditions in a glasshouse (at 24° C./16° C., day/night; 14 hours light; 65% humidity) and watered twice daily. After 13 days the test is evaluated for the percentage damage caused to the plant.

[8] = tested on: Amaranthus retroflexus (AMARE); experiment: Post-emergence Test (Table B2)
Experimental: as §1

[9] = tested on: Setaria faberi (SETFA); experiment: Post-emergence Test (Table B2)
Experimental: as §1

[10] = tested on: Echinochloa crus-galli (ECHCG); experiment: Post-emergence Test (Table B2)
Experimental: as §1

[11] = tested on: Ipomoea hederacea (IPOHE); experiment: Post-emergence Test (Table B2)
Experimental: as §1

[12] = tested on: Zea mays (ZEAMX); experiment: Post-emergence Test (Table B2)
Experimental: as §1

[13] = lower rate of 250 g per hectare

Compound	percentage damage caused to the plant, AMAPA ([1]; 1000 g/ha)	percentage damage caused to the plant, SETFA ([2]; 1000 g/ha)	percentage damage caused to the plant, ECHCG ([3]; 1000 g/ha)	percentage damage caused to the plant, AMARE ([4]; 1000 g/ha)	percentage damage caused to the plant, ZEAMX ([5]; 1000 g/ha)	percentage damage caused to the plant, IPOHE ([6]; 1000 g/ha)	percentage damage caused to the plant, AMAPA ([7]; 1000 g/ha)	percentage damage caused to the plant, AMARE ([8]; 1000 g/ha)	percentage damage caused to the plant, SETFA ([9]; 1000 g/ha)	percentage damage caused to the plant, ECHCG ([10]; 1000 g/ha)	percentage damage caused to the plant, IPOHE ([11]; 1000 g/ha)	percentage damage caused to the plant, ZEAMX ([12]; 1000 g/ha)	percentage damage caused to the plant, AMAPA [1, 13]	percentage damage caused to the plant, SETFA [2, 13]	percentage damage caused to the plant, ECHCG [3, 13]	percentage damage caused to the plant, AMARE [4, 13]	percentage damage caused to the plant, ZEAMX [5, 13]	percentage damage caused to the plant, IPOHE [6, 13]	percentage damage caused to the plant, AMAPA [7, 13]	percentage damage caused to the plant, AMARE [8, 13]	other results
C=CC(C)OC(=O)c1cc(-c2c(C)n(CC)c(-c3ccc(Cl)c(Cl)c3)c(C(=O)O)c2=O)c(F)cc1Cl (stereo not drawn) [Compound 21, 5-[4-chloro-2-fluoro-5-(1-methylallyloxycarbonyl)phenyl]-2-(3,4-dichlorophenyl)-1-ethyl-6-methyl-4-oxo-pyridine-3-carboxylic acid]	5 (5=81-100%)	2 (2=21-40%)	4 (4=61-80%)	5 (5=81-100%)	0	3 (3=41-60%)	5 (5=81-100%)	5 (5=81-100%)	3 (3=41-60%)	4 (4=61-80%)	3 (3=41-60%)	2 (2=21-40%)	–	–	–	–	–	–	–	–	–
CC#CC(C)OC(=O)c1cc(-c2c(C)n(CC)c(-c3ccc(Cl)c(Cl)c3)c(C(=O)O)c2=O)c(F)cc1Cl (stereo not drawn) [Compound 22, 5-[4-chloro-2-fluoro-5-(1-methylbut-2-ynoxycarbonyl)phenyl]-2-(3,4-dichlorophenyl)-1-ethyl-6-methyl-4-oxo-pyridine-3-carboxylic acid]	–	–	–	–	–	–	–	–	–	–	–	–	5 (5=81-100%)	1 (1=0-20%)	1 (1=0-20%)	5 (5=81-100%)	1 (1=0-20%)	1 (1=0-20%)	5 (5=81-100%)	5 (5=81-100%)	percentage damage caused to the plant, SETFA [9, 13]: 5 (5=81-100%); percentage damage caused to the plant, ECHCG [10, 13]: 5 (5=81-100%); percentage damage caused to the plant, IPOHE [11, 13]: 5 (5=81-100%); percentage damage caused to the plant, ZEAMX [12, 13]: 3 (3=41-60%)
CCn1c(C)c(-c2cc(C(=O)OC3CCC3)c(Cl)cc2F)c(=O)c(C(=O)O)c1-c1ccc(Cl)c(Cl)c1 [Compound 23, 5-[4-chloro-5-(cyclobutoxycarbonyl)-2-fluoro-phenyl]-2-(3,4-dichlorophenyl)-1-ethyl-6-methyl-4-oxo-pyridine-3-carboxylic acid]	5 (5=81-100%)	5 (5=81-100%)	5 (5=81-100%)	5 (5=81-100%)	2 (2=21-40%)	4 (4=61-80%)	5 (5=81-100%)	5 (5=81-100%)	5 (5=81-100%)	4 (4=61-80%)	2 (2=21-40%)	2 (2=21-40%)	–	–	–	–	–	–	–	–	–
CCn1c(C)c(-c2cc(C(=O)OC3CCCC3)c(Cl)cc2F)c(=O)c(C(=O)O)c1-c1ccc(Cl)c(Cl)c1 [Compound 24, 5-[4-chloro-5-(cyclopentoxycarbonyl)-2-fluoro-phenyl]-2-(3,4-dichlorophenyl)-1-ethyl-6-methyl-4-oxo-pyridine-3-carboxylic acid]	5 (5=81-100%)	1 (1=0-20%)	1 (1=0-20%)	5 (5=81-100%)	0	3 (3=41-60%)	5 (5=81-100%)	5 (5=81-100%)	5 (5=81-100%)	5 (5=81-100%)	4 (4=61-80%)	3 (3=41-60%)	–	–	–	–	–	–	–	–	–
CCn1c(C)c(-c2cc(C(=O)OC(C)COC)c(Cl)cc2F)c(=O)c(C(=O)O)c1-c1ccc(Cl)c(Cl)c1 (stereo not drawn) [Compound 26, 5-[4-chloro-2-fluoro-5-(2-methoxy-1-methyl-ethoxy)carbonyl-phenyl]-2-(3,4-dichlorophenyl)-1-ethyl-6-methyl-4-oxo-pyridine-3-carboxylic acid]	5 (5=81-100%)	4 (4=61-80%)	4 (4=61-80%)	5 (5=81-100%)	0	3 (3=41-60%)	5 (5=81-100%)	5 (5=81-100%)	5 (5=81-100%)	5 (5=81-100%)	5 (5=81-100%)	5 (5=81-100%)	–	–	–	–	–	–	–	–	–
CCn1c(C)c(-c2cc(C(=O)OC3CC3)c(Cl)cc2F)c(=O)c(C(=O)O)c1-c1ccc(C#N)c(F)c1 [Compound 39, 5-[4-chloro-5-(cyclopropoxycarbonyl)-2-fluoro-phenyl]-2-(4-cyano-3-fluoro-phenyl)-1-ethyl-6-methyl-4-oxo-pyridine-3-carboxylic acid]	–	–	–	–	–	–	–	–	–	–	–	–	5 (5=81-100%)	0	0	5 (5=81-100%)	0	4 (4=61-80%)	5 (5=81-100%)	5 (5=81-100%)	percentage damage caused to the plant, SETFA [9, 13]: 5 (5=81-100%); percentage damage caused to the plant, ECHCG [10, 13]: 4 (4=61-80%); percentage damage caused to the plant, IPOHE [11, 13]: 4 (4=61-80%); percentage damage caused to the plant, ZEAMX [12, 13]: 5 (5=81-100%)
CCn1c(C)c(-c2cc(C(=O)OC(C)CC(=O)OC)c(Cl)cc2F)c(=O)c(C(=O)O)c1-c1ccc(Cl)c(Cl)c1 (stereo not drawn) [Compound 42, 5-[4-chloro-2-fluoro-5-(3-methoxy-1-methyl-3-oxo-propoxy)carbonyl-phenyl]-2-(3,4-dichlorophenyl)-1-ethyl-6-methyl-4-oxo-pyridine-3-carboxylic acid]	–	–	–	–	–	–	–	–	–	–	–	–	1 (1=0-20%)	0	0	3 (3=41-60%)	1 (1=0-20%)	0	4 (4=61-80%)	5 (5=81-100%)	percentage damage caused to the plant, SETFA [9, 13]: 2 (2=21-40%); percentage damage caused to the plant, ECHCG [10, 13]: 2 (2=21-40%); percentage damage caused to the plant, IPOHE [11, 13]: 3 (3=41-60%); percentage damage caused to the plant, ZEAMX [12, 13]: 3 (3=41-60%)
C#CCC(C)OC(=O)c1cc(-c2c(C)n(CC)c(-c3ccc(Cl)c(Cl)c3)c(C(=O)O)c2=O)c(F)cc1Cl (stereo not drawn) [Compound 43, 5-[4-chloro-2-fluoro-5-(1-methylbut-3-ynoxycarbonyl)phenyl]-2-(3,4-dichlorophenyl)-1-ethyl-6-methyl-4-oxo-pyridine-3-carboxylic acid]	–	–	–	–	–	–	–	–	–	–	–	–	0	0	0	2 (2=21-40%)	0	0	5 (5=81-100%)	5 (5=81-100%)	percentage damage caused to the plant, SETFA [9, 13]: 3 (3=41-60%); percentage damage caused to the plant, ECHCG [10, 13]: 4 (4=61-80%); percentage damage caused to the plant, IPOHE [11, 13]: 2 (2=21-40%); percentage damage caused to the plant, ZEAMX [12, 13]: 4 (4=61-80%)
